Numbering of substitutions follows the chain as printed.
Tests used:
Assay type in all cases: cell-based
WT PfENT1 = biological target: T1, WT PfENT1 (Plasmodium falciparum, UniProt Q8IDM6); experiment: [3H]uridine uptake inhibition by purines in PfENT1-expressing yeast
T1 sequence (Q8IDM6 1-422): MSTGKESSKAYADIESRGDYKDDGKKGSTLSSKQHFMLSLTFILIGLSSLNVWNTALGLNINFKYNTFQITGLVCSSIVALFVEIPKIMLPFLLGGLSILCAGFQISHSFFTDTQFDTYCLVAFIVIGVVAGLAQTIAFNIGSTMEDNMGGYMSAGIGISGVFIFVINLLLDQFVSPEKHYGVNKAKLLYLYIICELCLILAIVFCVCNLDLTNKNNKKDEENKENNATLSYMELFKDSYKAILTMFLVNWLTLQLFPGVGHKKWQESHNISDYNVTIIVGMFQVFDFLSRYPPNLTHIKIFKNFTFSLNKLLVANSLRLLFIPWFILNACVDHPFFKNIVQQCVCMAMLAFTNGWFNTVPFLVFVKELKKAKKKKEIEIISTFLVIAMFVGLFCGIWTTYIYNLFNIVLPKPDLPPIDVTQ

PfENT1 F36S = biological target: T2, PfENT1 F36S (Plasmodium falciparum, UniProt Q8IDM6, F36S); experiment: [3H]uridine uptake inhibition by purines in PfENT1-SNP-expressing yeast
T2 sequence (Q8IDM6 1-422 F36S): T1 sequence (Q8IDM6 1-422) with F36S

PfENT1 F92I = biological target: T3, PfENT1 F92I (Plasmodium falciparum, UniProt Q8IDM6, F92I); experiment: as above
T3 sequence (Q8IDM6 1-422 F92I): T1 sequence (Q8IDM6 1-422) with F92I

PfENT1 L197F = biological target: T4, PfENT1 L197F (Plasmodium falciparum, UniProt Q8IDM6, L197F); experiment: as above
T4 sequence (Q8IDM6 1-422 L197F): T1 sequence (Q8IDM6 1-422) with L197F

PfENT1 S317T = biological target: T5, PfENT1 S317T (Plasmodium falciparum, UniProt Q8IDM6, S317T); experiment: as above
T5 sequence (Q8IDM6 1-422 S317T): T1 sequence (Q8IDM6 1-422) with S317T

PfENT1 V345I = biological target: T6, PfENT1 V345I (Plasmodium falciparum, UniProt Q8IDM6, V345I); experiment: as above
T6 sequence (Q8IDM6 1-422 V345I): T1 sequence (Q8IDM6 1-422) with V345I

OC[C@H]1O[C@@H](n2cnc3c(O)ncnc32)[C@H](O)[C@@H]1O [Inosine, inosine]
IC50 (WT PfENT1): 20 ± 7 µM
IC50 (PfENT1 F36S): 24 ± 7 µM
IC50 (PfENT1 F92I): 51 ± 14 µM
IC50 (PfENT1 L197F): 37 ± 12 µM
IC50 (PfENT1 S317T): 28 ± 2 µM
IC50 (PfENT1 V345I): 4 ± 0.2 µM

O=c1[nH]cnc2nc[nH]c12 [Hypoxanthine, hypoxanthine]
IC50 (WT PfENT1): 178 ± 44 µM
IC50 (PfENT1 F36S): 171 ± 25 µM
IC50 (PfENT1 F92I): 207 ± 34 µM
IC50 (PfENT1 L197F): 282 ± 8 µM
IC50 (PfENT1 S317T): 175 ± 31 µM
IC50 (PfENT1 V345I): 161 ± 57 µM

Nc1ncnc2nc[nH]c12 [Adenine, adenine]
IC50 (WT PfENT1): 475 ± 124 µM
IC50 (PfENT1 F36S): 292 ± 21 µM
IC50 (PfENT1 F92I): 176 ± 35 µM
IC50 (PfENT1 L197F): 46 ± 5 µM
IC50 (PfENT1 S317T): 205 ± 49 µM
IC50 (PfENT1 V345I): 225 ± 17 µM

Reference: publication PMC9218960 (ACS infectious diseases, 2020)
